{
  "source": "paper PMC7827406",
  "about": "“Structure–Activity Relationship (SAR) Study of Spautin-1 to Entail the Discovery of Novel NEK4 Inhibitors” (International Journal of Molecular Sciences, 2021)",
  "experiment_in_all_cases": "biochemical",
  "design_in_all_cases": "Eurofins KinaseProfiler full panel at Km ATP, residual kinase activity (%) relative to DMSO",
  "key": {"[1]": {"molecular_target": "T1, CK1γ2(h) (Homo sapiens, UniProt P78368)", "T1 construct": "gene CSNK1G2", "outline": "(§1)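 Radiometric kinase activity assays were run with ATP at Km and compounds at 10 µM, and remaining activity (%) was reported. A separate competitive binding screen measured DNA-tagged kinase displaced from immobilized active-site ligands by qPCR, giving percent kinase still bound at 10 µM compound in DMSO.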"}, "[2]": {"molecular_target": "ATM(h) (Homo sapiens, UniProt Q13315)", "outline": "as §1"}, "[3]": {"molecular_target": "T2, Bmx(h) (Homo sapiens, UniProt P51813)", "T2 sequence (P51813 1-675)": "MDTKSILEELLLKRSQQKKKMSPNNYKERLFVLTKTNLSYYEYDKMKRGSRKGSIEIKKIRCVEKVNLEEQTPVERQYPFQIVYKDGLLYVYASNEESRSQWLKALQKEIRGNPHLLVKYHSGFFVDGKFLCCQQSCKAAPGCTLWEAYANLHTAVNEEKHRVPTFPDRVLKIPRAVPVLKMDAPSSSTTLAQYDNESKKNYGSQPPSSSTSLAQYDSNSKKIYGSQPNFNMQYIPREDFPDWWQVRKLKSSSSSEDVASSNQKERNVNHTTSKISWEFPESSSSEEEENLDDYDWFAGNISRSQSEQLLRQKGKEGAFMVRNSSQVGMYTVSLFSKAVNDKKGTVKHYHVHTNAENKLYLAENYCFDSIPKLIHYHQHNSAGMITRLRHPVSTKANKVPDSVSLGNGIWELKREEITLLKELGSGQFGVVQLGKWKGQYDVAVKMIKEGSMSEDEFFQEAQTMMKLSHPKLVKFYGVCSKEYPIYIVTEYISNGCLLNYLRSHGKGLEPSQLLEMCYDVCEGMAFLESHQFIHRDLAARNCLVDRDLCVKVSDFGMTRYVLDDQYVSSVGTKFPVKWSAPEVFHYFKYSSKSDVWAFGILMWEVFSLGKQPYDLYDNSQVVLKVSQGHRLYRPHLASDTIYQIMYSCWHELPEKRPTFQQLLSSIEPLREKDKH", "outline": "as §1"}, "[4]": {"molecular_target": "T3, DMPK(h) (Homo sapiens, UniProt Q09013)", "T3 sequence (Q09013 1-629)": "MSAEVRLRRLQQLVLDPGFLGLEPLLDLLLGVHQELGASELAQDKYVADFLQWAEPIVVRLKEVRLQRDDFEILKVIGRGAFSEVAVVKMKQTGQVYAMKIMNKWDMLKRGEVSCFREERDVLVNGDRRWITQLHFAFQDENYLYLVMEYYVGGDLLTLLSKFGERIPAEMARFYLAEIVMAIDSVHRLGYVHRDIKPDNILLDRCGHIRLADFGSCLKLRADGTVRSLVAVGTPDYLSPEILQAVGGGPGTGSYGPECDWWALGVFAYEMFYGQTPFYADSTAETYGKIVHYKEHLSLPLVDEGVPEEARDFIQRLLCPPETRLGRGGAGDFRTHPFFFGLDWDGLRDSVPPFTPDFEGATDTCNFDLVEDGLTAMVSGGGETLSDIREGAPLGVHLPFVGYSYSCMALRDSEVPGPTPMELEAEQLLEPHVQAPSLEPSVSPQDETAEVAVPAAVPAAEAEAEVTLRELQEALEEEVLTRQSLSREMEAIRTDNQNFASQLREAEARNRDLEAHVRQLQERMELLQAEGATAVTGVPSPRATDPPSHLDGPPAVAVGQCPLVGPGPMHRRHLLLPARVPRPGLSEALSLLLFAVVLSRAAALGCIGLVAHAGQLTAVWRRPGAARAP", "outline": "as §1"}, "[5]": {"molecular_target": "T4, PI3 Kinase (p110a/p85a)(h) (Homo sapiens, UniProt P42336)", "T4 construct": "gene PIK3CA", "outline": "as §1"}, "[6]": {"molecular_target": "T5, cKit(D816H)(h) (Homo sapiens, UniProt P10721, D816H)", "T5 construct": "gene KIT", "T5 sequence (P10721 whole entry D816H)": "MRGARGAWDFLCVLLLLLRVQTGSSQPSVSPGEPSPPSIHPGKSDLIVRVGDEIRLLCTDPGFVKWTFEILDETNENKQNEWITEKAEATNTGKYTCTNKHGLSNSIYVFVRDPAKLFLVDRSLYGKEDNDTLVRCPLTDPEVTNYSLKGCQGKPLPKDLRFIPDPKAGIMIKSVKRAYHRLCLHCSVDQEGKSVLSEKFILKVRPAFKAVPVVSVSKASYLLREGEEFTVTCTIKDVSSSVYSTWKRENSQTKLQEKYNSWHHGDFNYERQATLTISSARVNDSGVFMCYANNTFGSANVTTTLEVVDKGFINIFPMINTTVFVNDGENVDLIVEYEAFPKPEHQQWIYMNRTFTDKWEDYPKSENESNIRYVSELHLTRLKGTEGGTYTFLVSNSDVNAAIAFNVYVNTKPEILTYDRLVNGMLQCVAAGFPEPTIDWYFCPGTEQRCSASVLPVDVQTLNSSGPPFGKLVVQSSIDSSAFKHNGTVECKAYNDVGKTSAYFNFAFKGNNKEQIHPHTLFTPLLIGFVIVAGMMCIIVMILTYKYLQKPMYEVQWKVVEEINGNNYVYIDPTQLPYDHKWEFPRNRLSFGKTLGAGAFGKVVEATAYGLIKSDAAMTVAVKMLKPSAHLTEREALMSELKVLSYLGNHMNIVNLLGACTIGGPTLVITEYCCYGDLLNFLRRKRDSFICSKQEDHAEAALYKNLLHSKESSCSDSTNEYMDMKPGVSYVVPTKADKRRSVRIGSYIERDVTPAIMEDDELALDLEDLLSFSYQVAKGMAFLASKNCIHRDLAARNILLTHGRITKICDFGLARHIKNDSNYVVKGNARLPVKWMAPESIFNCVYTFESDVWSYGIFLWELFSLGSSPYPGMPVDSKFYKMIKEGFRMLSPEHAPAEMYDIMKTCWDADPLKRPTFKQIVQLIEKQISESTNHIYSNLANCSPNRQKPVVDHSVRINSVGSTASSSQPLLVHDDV", "outline": "as §1"}, "[7]": {"molecular_target": "LRRK2(h) (Homo sapiens, UniProt Q5S007)", "sequence (Q5S007 whole entry)": "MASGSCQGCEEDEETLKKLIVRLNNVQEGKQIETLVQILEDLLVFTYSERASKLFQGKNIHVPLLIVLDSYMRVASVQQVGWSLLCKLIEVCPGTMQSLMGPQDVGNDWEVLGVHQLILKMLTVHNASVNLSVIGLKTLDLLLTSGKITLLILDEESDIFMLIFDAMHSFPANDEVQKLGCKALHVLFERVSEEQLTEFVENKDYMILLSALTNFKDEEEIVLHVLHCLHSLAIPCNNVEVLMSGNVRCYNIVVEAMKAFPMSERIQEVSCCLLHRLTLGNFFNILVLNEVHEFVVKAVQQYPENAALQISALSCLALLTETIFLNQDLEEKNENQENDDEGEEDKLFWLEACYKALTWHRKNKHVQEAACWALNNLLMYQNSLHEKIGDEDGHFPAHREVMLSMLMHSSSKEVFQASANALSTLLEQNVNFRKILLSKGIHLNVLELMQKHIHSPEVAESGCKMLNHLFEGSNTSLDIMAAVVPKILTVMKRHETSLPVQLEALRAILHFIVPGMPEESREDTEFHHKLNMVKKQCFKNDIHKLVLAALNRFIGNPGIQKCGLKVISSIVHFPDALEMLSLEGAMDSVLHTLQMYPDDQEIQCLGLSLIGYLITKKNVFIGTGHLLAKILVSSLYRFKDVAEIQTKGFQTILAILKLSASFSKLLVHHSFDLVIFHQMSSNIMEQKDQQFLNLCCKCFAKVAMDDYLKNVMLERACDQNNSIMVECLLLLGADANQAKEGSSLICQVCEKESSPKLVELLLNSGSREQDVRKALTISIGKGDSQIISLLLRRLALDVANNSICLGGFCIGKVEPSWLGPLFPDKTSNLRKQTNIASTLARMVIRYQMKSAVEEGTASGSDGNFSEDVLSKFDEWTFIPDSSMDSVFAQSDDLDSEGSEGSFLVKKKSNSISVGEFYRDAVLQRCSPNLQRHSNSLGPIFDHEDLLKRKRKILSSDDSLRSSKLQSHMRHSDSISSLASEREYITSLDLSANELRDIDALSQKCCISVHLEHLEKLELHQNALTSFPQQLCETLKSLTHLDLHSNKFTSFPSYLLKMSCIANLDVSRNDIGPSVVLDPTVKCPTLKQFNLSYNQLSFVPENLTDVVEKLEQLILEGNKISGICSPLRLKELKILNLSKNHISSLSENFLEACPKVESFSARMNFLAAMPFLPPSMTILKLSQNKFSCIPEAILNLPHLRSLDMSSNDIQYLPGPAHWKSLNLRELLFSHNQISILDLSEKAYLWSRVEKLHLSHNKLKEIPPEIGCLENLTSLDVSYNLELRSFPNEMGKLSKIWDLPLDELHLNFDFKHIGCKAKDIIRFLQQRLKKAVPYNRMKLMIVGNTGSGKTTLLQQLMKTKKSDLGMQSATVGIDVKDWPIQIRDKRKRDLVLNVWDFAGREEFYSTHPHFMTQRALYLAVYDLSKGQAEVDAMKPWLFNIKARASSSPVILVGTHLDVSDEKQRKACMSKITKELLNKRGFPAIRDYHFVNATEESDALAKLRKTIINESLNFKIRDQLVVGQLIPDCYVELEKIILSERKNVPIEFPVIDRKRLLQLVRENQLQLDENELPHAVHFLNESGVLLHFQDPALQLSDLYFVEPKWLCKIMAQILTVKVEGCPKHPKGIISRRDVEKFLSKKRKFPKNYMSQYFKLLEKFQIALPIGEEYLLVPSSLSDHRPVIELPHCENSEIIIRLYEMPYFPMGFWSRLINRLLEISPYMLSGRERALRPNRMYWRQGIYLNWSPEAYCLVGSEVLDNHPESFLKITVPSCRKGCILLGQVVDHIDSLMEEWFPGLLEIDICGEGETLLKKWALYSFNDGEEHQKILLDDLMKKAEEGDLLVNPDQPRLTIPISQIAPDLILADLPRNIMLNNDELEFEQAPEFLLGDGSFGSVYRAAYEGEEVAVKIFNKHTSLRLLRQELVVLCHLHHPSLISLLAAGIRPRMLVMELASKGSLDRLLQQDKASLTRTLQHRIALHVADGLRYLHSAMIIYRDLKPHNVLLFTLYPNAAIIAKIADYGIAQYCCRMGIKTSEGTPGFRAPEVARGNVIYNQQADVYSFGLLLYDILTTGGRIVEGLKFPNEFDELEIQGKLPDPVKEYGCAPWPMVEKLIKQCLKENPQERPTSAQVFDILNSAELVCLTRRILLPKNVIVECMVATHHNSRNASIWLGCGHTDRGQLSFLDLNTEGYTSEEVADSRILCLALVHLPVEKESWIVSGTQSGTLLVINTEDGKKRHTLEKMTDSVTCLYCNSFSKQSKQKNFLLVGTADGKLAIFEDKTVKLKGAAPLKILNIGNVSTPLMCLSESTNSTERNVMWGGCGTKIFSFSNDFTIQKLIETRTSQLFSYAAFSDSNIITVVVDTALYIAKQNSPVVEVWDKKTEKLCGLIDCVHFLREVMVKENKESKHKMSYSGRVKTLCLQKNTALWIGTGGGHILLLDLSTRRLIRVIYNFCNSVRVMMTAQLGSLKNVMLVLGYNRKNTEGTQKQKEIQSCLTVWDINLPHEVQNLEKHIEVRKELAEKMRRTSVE", "outline": "as §1"}, "[8]": {"conditions": "read-out: Residual activity (%) Spautin-1 5aa"}, "[9]": {"conditions": "read-out: Residual activity (%) 5as"}, "[10]": {"conditions": "read-out: Residual activity (%) 5at"}, "[11]": {"conditions": "read-out: Residual activity (%) 5ay"}},
  "note": "Where two headings read alike, the source gives them in different places.",
  "data": [
    {"smiles": "Fc1ccc(CNc2ncnc3ccc(F)cc23)cc1", "note": "[5aa, 6-Fluoro-N-(4-fluorobenzyl)-4-Quinazolinamine]", "values": [
      {"measurement": "remaining activity at 10 µM", "setting": "[1]; [8]", "value": 84, "unit": "%"},
      {"measurement": "remaining activity at 10 µM", "setting": "[2]; [8]", "value": 93, "unit": "%"},
      {"measurement": "remaining activity at 10 µM", "setting": "[3]; [8]", "value": 79, "unit": "%"},
      {"measurement": "remaining activity at 10 µM", "setting": "[4]; [8]", "value": 79, "unit": "%"},
      {"measurement": "remaining activity at 10 µM", "setting": "[5]; [8]", "value": 100, "unit": "%"},
      {"measurement": "remaining activity at 10 µM", "setting": "[6]; [8]", "value": 115, "unit": "%"},
      {"measurement": "remaining activity at 10 µM", "setting": "[7]; [8]", "value": 91, "unit": "%"}
    ]},
    {"smiles": "Fc1ccc(CCNc2ncnc3ccc(F)cc23)cc1", "note": "[5as, 6-Fluoro-N-[2-(4-Fluorophenyl)Ethyl]-4-Quinazolinamine]", "values": [
      {"measurement": "remaining activity at 10 µM", "setting": "[1]; [9]", "value": 72, "unit": "%"},
      {"measurement": "remaining activity at 10 µM", "setting": "[2]; [9]", "value": 88, "unit": "%"},
      {"measurement": "remaining activity at 10 µM", "setting": "[3]; [9]", "value": 78, "unit": "%"},
      {"measurement": "remaining activity at 10 µM", "setting": "[4]; [9]", "value": 90, "unit": "%"},
      {"measurement": "remaining activity at 10 µM", "setting": "[5]; [9]", "value": 103, "unit": "%"},
      {"measurement": "remaining activity at 10 µM", "setting": "[6]; [9]", "value": 95, "unit": "%"},
      {"measurement": "remaining activity at 10 µM", "setting": "[7]; [9]", "value": 91, "unit": "%"}
    ]},
    {"smiles": "Fc1ccc2ncnc(NCCc3ccc(Cl)cc3)c2c1", "note": "[5at, N-[2-(4-Chlorophenyl)Ethyl]-6-Fluoro-4-Quinazolinamine]", "values": [
      {"measurement": "remaining activity at 10 µM", "setting": "[1]; [10]", "value": 76, "unit": "%"},
      {"measurement": "remaining activity at 10 µM", "setting": "[2]; [10]", "value": 86, "unit": "%"},
      {"measurement": "remaining activity at 10 µM", "setting": "[3]; [10]", "value": 78, "unit": "%"},
      {"measurement": "remaining activity at 10 µM", "setting": "[4]; [10]", "value": 80, "unit": "%"},
      {"measurement": "remaining activity at 10 µM", "setting": "[5]; [10]", "value": 94, "unit": "%"},
      {"measurement": "remaining activity at 10 µM", "setting": "[6]; [10]", "value": 95, "unit": "%"},
      {"measurement": "remaining activity at 10 µM", "setting": "[7]; [10]", "value": 101, "unit": "%"}
    ]},
    {"smiles": "COc1ccc2ncnc(Nc3cccc(F)c3)c2c1", "note": "[5ay, N-(3-Fluorophenyl)-6-Methoxy-4-Quinazolinamine]", "values": [
      {"measurement": "remaining activity at 10 µM", "setting": "[1]; [11]", "value": 62, "unit": "%"},
      {"measurement": "remaining activity at 10 µM", "setting": "[2]; [11]", "value": 90, "unit": "%"},
      {"measurement": "remaining activity at 10 µM", "setting": "[3]; [11]", "value": 77, "unit": "%"},
      {"measurement": "remaining activity at 10 µM", "setting": "[4]; [11]", "value": 99, "unit": "%"},
      {"measurement": "remaining activity at 10 µM", "setting": "[5]; [11]", "value": 101, "unit": "%"},
      {"measurement": "remaining activity at 10 µM", "setting": "[6]; [11]", "value": 89, "unit": "%"},
      {"measurement": "remaining activity at 10 µM", "setting": "[7]; [11]", "value": 44, "unit": "%"}
    ]}
  ]
}
